Assay results reported in US8093028B2, “Engineered glycosyltransferases with expanded substrate specificity” (Wisconsin Alumni Research Foundation, priority 2007, dated 2012).

Tests used:
Assay in all cases: Rate of glucoside formation with acceptors (RP-HPLC)
Assay type in all cases: biochemical
OleD A242V = biological target: T1, OleD A242V (Streptomyces antibioticus, UniProt Q53685, A242V/P55A/R82V/R83E/T84P); conditions: 200 μM acceptor, 1 mM UDPG
T1 construct: made in house; host or cells: E. coli BL21(DE3)pLysS (error-prone PCR clone in pET28a)
Method: (§1) Enzyme assays for the determination of glycosyl transfer rate to FIG. 1: 4, Table 1: 27-32 were carried out in a total volume of 500 μl 50 mM Tris-HCl (pH8.0) containing 5 mM MgCl2, 200 μM acceptor, 1 mM UDPG, and 50 μg pure enzyme. Aliquots (100 μl) were removed between 0 and 30 min, at which time product formation was still linear with respect to time, and quenched with 90 μl of an 8:1 mixture of ice-cold MeOH/HCl, and centrifuged at 14,000 rpm for 10 min. Supernatants were analyzed by analytical reverse-phase HPLC with a 250 mm×4.6 mm Gemini […] C18 column (Phenomenex, Torrance, Calif.) using a gradient of 10-90% CH3CN in 0.1% trifluoroacetic acid (TFA)/H2O in 20 min at 1 ml/min, with detection at 254 nm. HPLC peak areas were integrated, and the product concentration calculated as a percent of the total peak area. Product identity was confirmed by co-elution with a commercial standard when available and, in all cases, by LC-MS (FIG. 8).
(§2) Reaction conditions for assay of macrolide glycosylation were identical to that for FIG. 1: 1, except that typically, less enzyme was used (1-10 μg) and reactions were quenched with an equal volume of ice-cold MeOH. Centrifuged reaction mixtures were analyzed by analytical reverse-phase HPLC with a Gemini 5μ C18 column (Phenomenex) using a gradient of 0-90% CH3CN in 50 mM NH3COOH over 30 min at 1 ml/min. Products and acceptor macrolide were detected by evaporative light scattering detection (ELSD) using a drift tube temperature of 105° C. and a nitrogen flow of 2.5 ml/min. All products were characterized by APCI LC-MS on an Agilent 1100 Series LC/MSD quadrapole mass spectrometer connected to a UV detector. Quenched reaction mixtures were analyzed by reverse-phase HPLC with a 10 mm×4.6 mm Zorbax Extend 5μ C18 Analytical Guard Column (Agilent Technologies) using an isocratic gradient of 80% MeOH in 2 min at 1 ml/min, with detection at 254 nm.
(§3) Enzyme reactions were carried out in a total volume of 500 μl 50 mM Tris-HCl (pH8.0) containing 5 mM MgCl2, 200 μM acceptor, 1 mM UDPG, and 50 μg pure enzyme. Aliquots (100 μl) were removed between 0 and 30 min, and quenched with 90 μl of an 8:1 mixture of ice-cold MeOH/HCl for activity towards FIG. 1: 4, Table 1: 27-32, or with 90 μl of ice-cold MeOH for activity towards FIG. 1: 1, and the samples centrifuged at 14,000 rpm for 10 min.
(§4) For determination of activity to FIG. 1: 4, Table 1: 27-32, supernatants were analyzed by analytical reverse-phase HPLC with a Gemini 5μ C18 column (Phenomenex) using a gradient of 10-90% CH3CN in 0.1% trifluoroacetic acid (TFA)/H2O in 20 min, with detection at 254 nm. HPLC peak areas were integrated, and the product concentration calculated as a percent of the total peak area. All products were characterized by LC-MS. Mass spectra were obtained using electrospray ionization on an Agilent 1100 HPLC-MSD SL quadrapole mass spectrometer connected to a UV/Vis diode array detector. For LC-MS analysis, quenched reaction mixtures (see below) were analyzed by analytical reverse-phase HPLC with a 250 mm×4.6 mm Gemini 5μ C18 column (Phenomenex, Torrance, Calif.) using a gradient of 10-90% CH3CN in 0.1% formic acid/H2O in 20 min at 1 ml/min, with detection at 254 nm.
as §2, with “For determination” for “Reaction conditions for assay”, “activity toward” for “macrolide glycosylation were identical to that for”, “centrifuged” for “except that typically, less enzyme was used (1-10 μg) and reactions were quenched with an equal volume of ice-cold MeOH. Centrifuged”, “Compounds FIG. 1: 1” for “Products”, “3” for “acceptor macrolide”

OleD S132F = biological target: T2, OleD S132F (Streptomyces antibioticus, UniProt Q53685, P55A/R82V/R83E/S132F/T84P); conditions: 200 μM acceptor, 1 mM UDPG
T2 construct: made in house; host or cells: E. coli (site-directed mutant of pET28/OleD)
Method: as §1, §2, §3, §4
as §2, with “For determination” for “Reaction conditions for assay”, “activity toward” for “macrolide glycosylation were identical to that for”, “centrifuged” for “except that typically, less enzyme was used (1-10 μg) and reactions were quenched with an equal volume of ice-cold MeOH. Centrifuged”, “Compounds FIG. 1: 1” for “Products”, “3” for “acceptor macrolide”

OleD P67T = biological target: T3, OleD P67T (Streptomyces antibioticus, UniProt Q53685, P55A/P67T/R82V/R83E/T84P); conditions: 200 μM acceptor, 1 mM UDPG
T3 construct: made in house; host or cells: E. coli (site-directed mutant of pET28/OleD)
Method: as §1, §2, §3, §4
as §2, with “For determination” for “Reaction conditions for assay”, “activity toward” for “macrolide glycosylation were identical to that for”, “centrifuged” for “except that typically, less enzyme was used (1-10 μg) and reactions were quenched with an equal volume of ice-cold MeOH. Centrifuged”, “Compounds FIG. 1: 1” for “Products”, “3” for “acceptor macrolide”

WT OleD = biological target: T4, WT OleD (Streptomyces antibioticus, UniProt Q53685, P55A/R82V/R83E/T84P); conditions: 200 μM acceptor, 1 mM UDPG
T4 construct: made in house; host or cells: E. coli BL21(DE3)pLysS, plasmid pET28/OleD
Method: as §1, §2, §3, §4
as §2, with “For determination” for “Reaction conditions for assay”, “activity toward” for “macrolide glycosylation were identical to that for”, “centrifuged” for “except that typically, less enzyme was used (1-10 μg) and reactions were quenched with an equal volume of ice-cold MeOH. Centrifuged”, “Compounds FIG. 1: 1” for “Products”, “3” for “acceptor macrolide”

OleD P67T/S132F/A242V = biological target: T5, OleD P67T/S132F/A242V (Streptomyces antibioticus, UniProt Q53685, A242V/P67T/S132F); conditions: for Rate of glucoside formation, P67T/S132F/A242V: 200 μM acceptor, 1 mM UDPG
T5 construct: made in house; host or cells: E. coli (site-directed mutant of pET28/OleD)
Method: as §1, with “8). […]” for “8).”
as §3, §4
as §2, with “For determination” for “Reaction conditions for assay”, “activity toward” for “macrolide glycosylation were identical to that for”, “centrifuged” for “except that typically, less enzyme was used (1-10 μg) and reactions were quenched with an equal volume of ice-cold MeOH. Centrifuged”, “Compounds FIG. 1: 1” for “Products”, “3” for “acceptor macrolide”

Row | SMILES | Rate of glucoside formation, A242V (OleD A242V) | Rate of glucoside formation, S132F (OleD S132F) | Rate of glucoside formation, P67T (OleD P67T) | Rate of glucoside formation, WT (WT OleD) | Rate of glucoside formation, P67T/S132F/A242V (OleD P67T/S132F/A242V) | specific activity, fold higher than WT OleD (OleD P67T/S132F/A242V; 4 and 2 as acceptor/donor) [fold] | Fold-improvement compared to WT OleD (OleD P67T/S132F/A242V; rate of P67T/S132F/A242V versus WT, UDPG donor) [fold]
1 | Cc1cc(=O)oc2cc(O)ccc12 [4-Me-umb (4), 7-hydroxy-4-methylcoumarin] | 5.4 mmols/product formed/min/μg enzyme × 10^3 | 6.3 mmols/product formed/min/μg enzyme × 10^3 | 15.7 mmols/product formed/min/μg enzyme × 10^3 | 2.5 mmols/product formed/min/μg enzyme × 10^3 | 84 mmols/product formed/min/μg enzyme × 10^3 | ~30 | 33
2 | CC(C)=CCc1cc(C(=O)Nc2c(O)c3ccc(O)c(C)c3oc2=O)ccc1O [novobiocic acid (29), novobiocic acid] | 0.33 mmols/product formed/min/μg enzyme × 10^3 | 0.49 mmols/product formed/min/μg enzyme × 10^3 | 0.65 mmols/product formed/min/μg enzyme × 10^3 | 0.24 mmols/product formed/min/μg enzyme × 10^3 | 1.14 mmols/product formed/min/μg enzyme × 10^3 |  | 
